Key:
Experiment in all cases: maximum observed lethal fraction; higher = more cell death
U2OS BAX/BAK1 DKO = tested on: U2OS BAX/BAK1 DKO
U2OS = tested on: U2OS
U2OS PTBP1-KO = tested on: U2OS PTBP1-KO
U2OS BCL2L12-KO = tested on: U2OS BCL2L12-KO
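Note: FLICK assay: SYTOX Green fluorescence of dead cells tracked over time after drugging in 96-well plates, with total cell counts taken from Triton X-100 lysed wells.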

CCN1CCN(Cc2ccc(Nc3ncc(F)c(-c4cc(F)c5nc(C)n(C(C)C)c5c4)n3)nc2)CC1 [Abemaciclib]
maximum observed lethal fraction
Conditions	0.01 µM	0.0316 µM	0.1 µM	0.316 µM	1 µM	3.16 µM	10 µM
U2OS	0.0681	0.0675	0.0675	0.0855	0.376	0.314	0.851
U2OS BAX/BAK1 DKO	0.0682	0.0681	0.0721	0.0802	0.0972	0.0964	0.339
U2OS BCL2L12-KO	0.0701	0.071	0.073	0.0769	0.211	0.457	0.889
U2OS PTBP1-KO	0.0734	0.0787	0.081	0.0922	0.161	0.257	0.739

CC[C@@]1(O)C(=O)OCc2c1cc1n(c2=O)Cc2cc3c(CN(C)C)c(O)ccc3nc2-1 [Topotecan]
maximum observed lethal fraction
Conditions	0.0316 µM	0.1 µM	0.316 µM	1 µM	3.16 µM	10 µM	31.6 µM
U2OS	0.0699	0.0706	0.0756	0.0868	0.233	0.5	0.683
U2OS BAX/BAK1 DKO	0.0741	0.0822	0.0765	0.0845	0.0931	0.0974	0.177
U2OS BCL2L12-KO	0.0781	0.0819	0.0871	0.0968	0.208	0.495	0.798
U2OS PTBP1-KO	0.0741	0.0838	0.0808	0.0858	0.106	0.197	0.329

C[C@H]1CCC/C=C/[C@@H]2C[C@H](O)C[C@H]2[C@H](O)/C=C/C(=O)O1 [Brefeldin A]
maximum observed lethal fraction
Conditions	0.0316 µM	0.1 µM	0.316 µM	1 µM	3.16 µM	10 µM	31.6 µM
U2OS	0.0868	0.38	0.634	0.701	0.762	0.775	0.818
U2OS BAX/BAK1 DKO	0.0711	0.075	0.0688	0.0708	0.0703	0.0786	0.0716
U2OS BCL2L12-KO	0.218	0.387	0.628	0.709	0.77	0.793	0.86
U2OS PTBP1-KO	0.168	0.257	0.333	0.321	0.29	0.411	0.389

COc1cc([C@@H]2c3cc4c(cc3[C@@H](O[C@@H]3O[C@@H]5CO[C@@H](C)O[C@H]5[C@H](O)[C@H]3O)[C@H]3COC(=O)[C@H]23)OCO4)cc(OC)c1O [Etoposide]
maximum observed lethal fraction
Conditions	0.0316 µM	0.1 µM	0.316 µM	1 µM	3.16 µM	10 µM	31.6 µM
U2OS	0.0568	0.0636	0.0687	0.0712	0.0784	0.31	0.601
U2OS BAX/BAK1 DKO	0.055	0.0596	0.0706	0.0746	0.0695	0.0871	0.0793
U2OS BCL2L12-KO	0.0627	0.0728	0.083	0.0936	0.0967	0.341	0.629
U2OS PTBP1-KO	0.0736	0.0782	0.0848	0.0897	0.0981	0.384	0.649

CC1(C)CCC(c2ccc(Cl)cc2)=C(CN2CCN(c3ccc(C(=O)NS(=O)(=O)c4ccc(N[C@H](CCN5CCOCC5)CSc5ccccc5)c(S(=O)(=O)C(F)(F)F)c4)cc3)CC2)C1 [ABT-263]
maximum observed lethal fraction
Conditions	0.1 µM	0.316 µM	1 µM	3.16 µM	10 µM	31.6 µM	100 µM
U2OS	0.0623	0.0847	0.106	0.2	0.247	0.683	0.984
U2OS BAX/BAK1 DKO	0.0556	0.0535	0.0545	0.0548	0.0634	0.172	0.43
U2OS BCL2L12-KO	0.0718	0.0885	0.121	0.225	0.26	0.821	1
U2OS PTBP1-KO	0.0713	0.0786	0.0982	0.131	0.192	0.771	1

Cc1[nH]c2ccccc2c1CCNCc1ccc(/C=C/C(=O)NO)cc1 [Panobinostat]
maximum observed lethal fraction
Conditions	0.001 µM	0.00316 µM	0.01 µM	0.0316 µM	0.1 µM	0.316 µM	1 µM
U2OS	0.0735	0.0836	0.265	0.655	0.761	0.802	0.851
U2OS BAX/BAK1 DKO	0.0715	0.0768	0.0894	0.102	0.108	0.0953	0.0939
U2OS BCL2L12-KO	0.0774	0.0897	0.352	0.775	0.856	0.838	0.895
U2OS PTBP1-KO	0.0914	0.11	0.349	0.527	0.601	0.603	0.65

CC(C)C[C@@H](C=O)NC(=O)[C@H](CC(C)C)NC(=O)[C@H](CC(C)C)NC(=O)OCc1ccccc1 [MG132]
maximum observed lethal fraction
Conditions	0.01 µM	0.0316 µM	0.1 µM	0.316 µM	1 µM	3.16 µM	10 µM
U2OS	0.0559	0.0568	0.0844	0.698	0.86	0.893	0.926
U2OS BAX/BAK1 DKO	0.0534	0.0549	0.0687	0.0897	0.337	0.434	0.384
U2OS BCL2L12-KO	0.0715	0.07	0.0753	0.327	0.817	0.914	0.972
U2OS PTBP1-KO	0.0698	0.0706	0.0708	0.182	0.683	0.813	0.923

NC(=O)c1cccc2cn(-c3ccc([C@@H]4CCCNC4)cc3)nc12 [Niraparib]
maximum observed lethal fraction
Conditions	0.1 µM	0.316 µM	1 µM	3.16 µM	10 µM	31.6 µM	100 µM
U2OS	0.0543	0.0611	0.0677	0.067	0.0744	0.716	0.968
U2OS BAX/BAK1 DKO	0.0556	0.0569	0.065	0.0723	0.0787	0.342	0.936
U2OS BCL2L12-KO	0.0692	0.0678	0.0775	0.0795	0.0934	0.86	0.928
U2OS PTBP1-KO	0.0698	0.0678	0.0749	0.0795	0.0839	0.396	0.964

Cc1cc(Nc2ccc(NC(=O)c3ccc(Nc4ccnc5ccccc45)cc3)cc2)nc(N)n1 [SGI-1027]
maximum observed lethal fraction
Conditions	0.0316 µM	0.1 µM	0.316 µM	1 µM	3.16 µM	10 µM	31.6 µM
U2OS	0.0565	0.0566	0.0644	0.414	0.997	1	0.875
U2OS BAX/BAK1 DKO	0.0581	0.0592	0.0626	0.104	0.964	1	0.883
U2OS BCL2L12-KO	0.0572	0.0566	0.0604	0.902	1	0.984	0.888
U2OS PTBP1-KO	0.0577	0.0687	0.0612	0.208	0.977	1	0.886

CNCc1ccc(-c2[nH]c3cc(F)cc4c3c2CCNC4=O)cc1 [Rucaparib]
maximum observed lethal fraction
Conditions	0.1 µM	0.316 µM	1 µM	3.16 µM	10 µM	31.6 µM	100 µM
U2OS	0.0508	0.0538	0.0545	0.057	0.0608	0.278	0.81
U2OS BAX/BAK1 DKO	0.0512	0.0548	0.0528	0.06	0.0652	0.0926	0.178
U2OS BCL2L12-KO	0.065	0.0637	0.0652	0.0687	0.0753	0.195	0.886
U2OS PTBP1-KO	0.0657	0.065	0.0647	0.0685	0.0766	0.18	0.683

CN(C)C/C=C/C(=O)Nc1ccc(C(=O)Nc2cccc(Nc3ncc(Cl)c(-c4c[nH]c5ccccc45)n3)c2)cc1 [THZ1]
maximum observed lethal fraction
Conditions	0.01 µM	0.0316 µM	0.1 µM	0.316 µM	1 µM	3.16 µM	10 µM
U2OS	0.0758	0.274	0.452	0.441	0.57	0.678	0.76
U2OS BAX/BAK1 DKO	0.0742	0.0981	0.0902	0.1	0.109	0.157	0.12
U2OS BCL2L12-KO	0.0888	0.274	0.475	0.467	0.582	0.742	0.761
U2OS PTBP1-KO	0.101	0.239	0.388	0.33	0.486	0.627	0.707

COc1cc([C@@H]2c3cc4c(cc3[C@@H](O[C@@H]3O[C@@H]5CO[C@@H](c6cccs6)O[C@H]5[C@H](O)[C@H]3O)[C@H]3COC(=O)[C@H]23)OCO4)cc(OC)c1O [Teniposide]
maximum observed lethal fraction
Conditions	0.0316 µM	0.1 µM	0.316 µM	1 µM	3.16 µM	10 µM	31.6 µM
U2OS	0.0732	0.0749	0.0834	0.373	0.714	0.804	0.867
U2OS BAX/BAK1 DKO	0.0788	0.0806	0.0807	0.0902	0.106	0.205	0.299
U2OS BCL2L12-KO	0.0736	0.0745	0.0806	0.355	0.728	0.801	0.968
U2OS PTBP1-KO	0.079	0.0821	0.0892	0.383	0.686	0.763	0.815

CN1CC[C@H](c2c(O)cc(O)c3c(=O)cc(-c4ccccc4Cl)oc23)[C@H](O)C1 [Flavopiridol]
maximum observed lethal fraction
Conditions	0.01 µM	0.0316 µM	0.1 µM	0.316 µM	1 µM	3.16 µM	10 µM
U2OS	0.0575	0.0639	0.486	0.528	0.552	0.501	0.356
U2OS BAX/BAK1 DKO	0.0607	0.0712	0.208	0.0919	0.093	0.092	0.0925
U2OS BCL2L12-KO	0.0552	0.0619	0.1	0.279	0.298	0.295	0.249
U2OS PTBP1-KO	0.0606	0.067	0.099	0.198	0.282	0.247	0.198

CC(C)C[C@H](NC(=O)[C@H](Cc1ccccc1)NC(=O)c1cnccn1)B(O)O [Bortezomib]
maximum observed lethal fraction
Conditions	0.001 µM	0.00316 µM	0.01 µM	0.0316 µM	0.1 µM	0.316 µM	1 µM
U2OS	0.0526	0.193	0.757	0.865	0.9	0.904	0.917
U2OS BAX/BAK1 DKO	0.059	0.0694	0.096	0.27	0.378	0.387	0.443
U2OS BCL2L12-KO	0.0699	0.0922	0.345	0.8	0.791	0.889	0.904
U2OS PTBP1-KO	0.0725	0.108	0.418	0.637	0.731	0.791	0.82

CN(C)CC[C@H](CSc1ccccc1)Nc1ccc(S(=O)(=O)NC(=O)c2ccc(N3CCN(Cc4ccccc4-c4ccc(Cl)cc4)CC3)cc2)cc1[N+](=O)[O-] [ABT-737]
maximum observed lethal fraction
Conditions	0.0316 µM	0.1 µM	0.316 µM	1 µM	3.16 µM	10 µM	31.6 µM
U2OS	0.0571	0.0649	0.0818	0.115	0.189	0.462	0.788
U2OS BAX/BAK1 DKO	0.0579	0.0557	0.0559	0.0569	0.0568	0.0722	0.082
U2OS BCL2L12-KO	0.0733	0.076	0.0912	0.127	0.28	0.596	0.84
U2OS PTBP1-KO	0.0704	0.0736	0.0737	0.0836	0.13	0.38	0.617

C#C[C@@]1(O)[C@@H](CO)O[C@@H](n2ccc(N)nc2=O)[C@@H]1O [Ethynylcytidine]
maximum observed lethal fraction
Conditions	0.01 µM	0.0316 µM	0.1 µM	0.316 µM	1 µM	3.16 µM	10 µM
U2OS	0.0536	0.0612	0.071	0.0947	0.523	0.868	0.787
U2OS BAX/BAK1 DKO	0.0536	0.059	0.0745	0.0801	0.0819	0.0878	0.0906
U2OS BCL2L12-KO	0.068	0.0771	0.0843	0.0999	0.323	0.706	0.715
U2OS PTBP1-KO	0.0691	0.0709	0.0864	0.0904	0.101	0.329	0.244
